Compound	melting point
CN(CC1(O)CCN(CCOc2ccc(C#N)cc2)CC1)c1ccc(C(=O)O)cc1.Cl	258.4 to 260.1 °C
COC1(CN(C)c2ccc(C(=O)O)cc2)CCN(CCc2ccc(C#N)cc2)CC1.Cl	226.3 to 230.7 °C
CN(CC1(O)CCCN(CCc2ccc(C#N)cc2)C1)c1ccc(C(=O)OC(C)(C)C)cc1 (stereo not drawn) [Example 9, tert-butyl 4-({1-[2-(4-cyanophenyl)ethyl]-3-hydroxypiperidin-3-ylmethyl}methylamino)benzoate]	41.2 to 44.1 °C
COC(=O)c1ccc(N(C)CC2(O)CN(CCc3ccc(C#N)cc3)C2)cc1 [Example 10, methyl 4-({1-[2-(4-cyanophenyl)ethyl]-3-hydroxyazetidin-3-ylmethyl}methylamino)benzoate]	145.5 to 149.1 °C
COC(=O)c1ccc(OCC2(O)CCN(CCc3ccc(C#N)cc3)CC2)cc1 [Example 13, methyl 4-{1-[2-(4-cyanophenyl)ethyl]-4-hydroxypiperidin-4-ylmethoxy}benzoate]	118.6 to 120.6 °C
CN(CC1(O)CN(CCc2ccc(C#N)cc2)C1)c1ccc(C(=O)O)cc1 [Example 17, 4-({1-[2-(4-cyanophenyl)ethyl]-3-hydroxyazetidin-3-ylmethyl}methylamino)benzoic acid]	197.9 to 199.4 °C
COC(=O)c1ccc(N(C)CC2(O)CCN(Cc3ccc(C#N)cc3)CC2)cc1 [Example 20, methyl 4-{[1-(4-cyanobenzyl)-4-hydroxypiperidin-4-ylmethyl]methylamino}benzoate]	127.5 to 137.1 °C
COC(=O)c1ccc(N(C)CC2(O)CCN(CCCc3ccc(C#N)cc3)CC2)cc1 [Example 21, methyl 4-({1-[3-(4-cyanophenyl)propyl]-4-hydroxypiperidin-4-ylmethyl}methylamino)benzoate]	126.8 to 129.7 °C
COC(=O)c1ccc(N(C)CC2(O)CCN(CCOc3ccc(C#N)cc3)CC2)cc1 [Example 22, methyl 4-({1-[2-(4-cyanophenoxy)ethyl]-4-hydroxypiperidin-4-ylmethyl}methylamino)benzoate]	112.5 to 113 °C
CN(CC1(O)CCN(CCc2ccc(C#N)cc2)CC1)c1ccc(C(=O)NOC2CCCCO2)cc1 (stereo not drawn) [Example 23, 4-({1-[2-(4-cyanophenyl)ethyl]-4-hydroxypiperidin-4-ylmethyl}methylamino)-N-(tetrahydropyran-2-yloxy)benzamide]	100.9 to 102.1 °C
COC(=O)c1ccc(N(C)CC2(O)CCN(CCc3ccc(C(F)(F)F)cc3)CC2)cc1 [Example 24, methyl 4-({4-hydroxy-1-[2-(4-trifluoromethylphenyl)ethyl]piperidin-4-ylmethyl}methylamino)benzoate]	142.7 to 143.9 °C
COC(=O)c1ccc(N(C)CC2(OC)CCN(CCc3ccc(C#N)cc3)CC2)cc1 [Example 25, methyl 4-({1-[2-(4-cyanophenyl)ethyl]-4-methoxypiperidin-4-ylmethyl}methylamino)benzoate]	126.9 to 134.5 °C
COC(=O)c1ccc(SCC2(O)CCN(CCc3ccc(C#N)cc3)CC2)cc1 [Example 42, methyl 4-{1-[2-(4-cyanophenyl)ethyl]-4-hydroxypiperidin-4-ylmethylthio}benzoate]	119.1 to 120.8 °C
COC(=O)c1ccc([S+]([O-])CC2(O)CCN(CCc3ccc(C#N)cc3)CC2)cc1 (stereo not drawn) [Example 44, methyl 4-{1-[2-(4-cyanophenyl)ethyl]-4-hydroxypiperidin-4-ylmethylsulfinyl}benzoate]	169.6 to 174.5 °C

The remaining lines, values ahead:

melting point	Compound
254.2 to 258.9 °C	CN(CC1(O)CCN(CCc2ccc(C#N)cc2)CC1)c1ccc(C(=O)O)cc1Cl.Cl
116.3 to 120.8 °C	COc1cc(N(C)CC2(O)CCN(CCc3ccc(C#N)cc3)CC2)c(Cl)cc1C(=O)O.Cl
220.1 to 233.3 °C	CN(CC1(O)CCCN(CCc2ccc(C#N)cc2)C1)c1ccc(C(=O)O)cc1.Cl (stereo not drawn)
231.3 to 236.4 °C	CN(CCC1(O)CCN(CCc2ccc(C#N)cc2)CC1)c1ccc(C(=O)O)cc1.Cl
127.1 to 132.7 °C	Cc1cc(C(=O)O)ccc1N(C)CC1(O)CCN(CCc2ccc(C#N)cc2)CC1.Cl
145.2 to 148 °C	CN(CC1(O)CCN(CCc2ccc(C#N)cc2)CC1)c1ccc(C(=O)O)c(Cl)c1.Cl
191.3 to 193.9 °C	CN(CC1(O)CCN(CCc2ccc(C#N)cc2)CC1)c1ccc(C(=O)NO)cc1.Cl
153.1 to 157.7 °C	CN(CC1(O)CCN(Cc2ccc(C#N)cc2)CC1)c1ccc(C(=O)O)cc1.Cl
150.1 to 151.2 °C	CN(CC1(O)CCN(CCCc2ccc(C#N)cc2)CC1)c1ccc(C(=O)O)cc1.Cl
279.7 °C (dec.)	Cl.N#Cc1ccc(CCN2CCC(O)(C[S+]([O-])c3ccc(C(=O)O)cc3)CC2)cc1 (stereo not drawn)
103.6 to 108.7 °C	Cc1cc(C(=O)O)ccc1N(C)CC1(O)CCN(CCc2ccc(C#N)cc2)CC1 [Example 3, 4-({1-[2-(4-cyanophenyl)ethyl]-4-hydroxypiperidin-4-ylmethyl}methylamino)-3-methylbenzoic acid]
252.6 °C (dec.)	COc1cc(C(=O)O)ccc1N(C)CC1(O)CCN(CCc2ccc(C#N)cc2)CC1 [Example 4, 4-({1-[2-(4-cyanophenyl)ethyl]-4-hydroxypiperidin-4-ylmethyl}methylamino)-3-methoxybenzoic acid]
186.2 to 189.6 °C	CN(CC1(O)CCN(CCc2ccc(C#N)cc2)CC1)c1ccc(C(=O)O)c(Cl)c1 [Example 5, 2-chloro-4-({1-[2-(4-cyanophenyl)ethyl]-4-hydroxypiperidin-4-ylmethyl}methylamino)benzoic acid]
110.7 to 112.4 °C	CN(CC1(O)CCN(CCc2ccc(C#N)cc2)CC1)c1ccc(C(=O)O)cc1Cl [Example 6, 3-chloro-4-({1-[2-(4-cyanophenyl)ethyl]-4-hydroxypiperidin-4-ylmethyl}methylamino)benzoic acid]
226.8 to 228.3 °C	COc1cc(N(C)CC2(O)CCN(CCc3ccc(C#N)cc3)CC2)c(Cl)cc1C(=O)O [Example 7, 5-chloro-4-({1-[2-(4-cyanophenyl)ethyl]-4-hydroxypiperidin-4-ylmethyl}methylamino)-2-methoxybenzoic acid]
140.5 to 142.2 °C	COC(=O)c1ccc(N(C)CC2(O)CCN(CCc3ccc(C#N)cc3)CC2)cc1 [Example 12, methyl 4-({1-[2-(4-cyanophenyl)ethyl]-4-hydroxypiperidin-4-ylmethyl}methylamino)benzoate]
106.1 to 130.8 °C	CN(CC1(O)CCN(CCc2ccc(C#N)cc2)C1)c1ccc(C(=O)O)cc1 (stereo not drawn) [Example 14, 4-({1-[2-(4-cyanophenyl)ethyl]-3-hydroxypyrrolidin-3-ylmethyl}methylamino)benzoic acid]
166.9 to 181.3 °C	CN(CC1(O)CCCN(CCc2ccc(C#N)cc2)C1)c1ccc(C(=O)O)cc1 (stereo not drawn) [Example 15, 4-({1-[2-(4-cyanophenyl)ethyl]-3-hydroxypiperidin-3-ylmethyl}methylamino)benzoic acid]
146.8 to 148.4 °C	CN(CCC1(O)CCN(CCc2ccc(C#N)cc2)CC1)c1ccc(C(=O)O)cc1 [Example 16, 4-[(2-{1-[2-(4-cyanophenyl)ethyl]-4-hydroxypiperidin-4-yl}ethyl)methylamino]benzoic acid]
